Measured values taken from patent US20240122938A1, “METHODS AND COMPOSITIONS FOR TREATING UVEAL MELANOMA” (INSERM (INSTITUT NATIONAL DE LA SANTÉ ET DE LA RECHERCHE …, priority 2019, published 2024).

How the values were obtained:
[1] = Body weight and blood biochemical analysis of xenografted mice; assay type: in vivo
Method: FIG. 3. ABT-263 reduces tumor growth in vivo. (A) Primary 92.1 uveal melanoma cells were subcutaneously engrafted into athymic nude mice. Once the tumours reached 100 mm3, mice were treated daily with ABT-263. The arrow indicates the start of the treatment. The growth tumor curves were determined by measuring the tumor volume using the equation V=(L Å˜W2)/2. […] (B) Sub-cutaneous tumor weight from control (Ct) and ABT-263-treated mice is shown. (C) Blood biochemical analysis of mice xenografted with OMM1 cells. Serum activity of alanine transaminase (ALT) and aspartate transaminase (AST) was measured in control and ABT-263 by spectrophotometric methods after the end of treatment. Data are presented as mean±SD (n=5 per group). Animal experiments were performed in accordance with French law and approved by a local institutional ethical committee. The animals were maintained in a temperature-controlled facility (22° C.) on a 12-h light/dark cycle and provided free access to food (standard laboratory chow diet from UAR, Epinay-S/Orge, France). Human Mel270 uvealmelanoma cells were subcutaneously inoculated into 8-week-old female, immune-deficient, athymic, nude FOXN1nu mice (Harlan Laboratory). When the tumors became palpable (0.1-0.2 cm3), the mice received an intraperitoneal injection of ABT-263 (50 mg/kg), dissolved in 10% DMSO 6 times per week. Control mice were injected with DMSO alone. The growth tumor curves were determined after measuring the tumor volume using the equation V=(L×W2)/2. At the end of the experiment, the mice were euthanized by cervical dislocation.

[2] = system: metastatic cell lines; assay: Colony formation assay; assay type: cell-based, human; conditions: metastatic versus primary cell lines; data not shown
Method: Human uveal melanoma cells were seeded onto 6-well plates. The cells were subsequently placed in a 37° C., 5% C02 incubator. Colonies of cells were grown before being stained with 0.04% crystal violet/2% ethanol in PBS for 30 min. Photographs of the stained colonies were captured. The colony formation assay was performed in duplicate.

[3] = system: ATF4 and CHOP in 92.1 cells; assay: Western blot of ER stress molecules; assay type: cell-based, human
Method: (§1) Western blotting was performed as previously described 25,26. Briefly, cell lysates (30 μg) were separated using SDS-PAGE, transferred onto a PVDF membrane and subsequently exposed to the appropriate antibodies, anti-BCL2 (ms-123-PO) was from neomarker, anti-caspase 3 (#610323) was from BD, anti-BAX (#8429) was from sigma, anti-PARP (#9542), anti-BCL-XL (#2762), anti-caspase 9 (#9502) and anti-PUMA (#4976) were from Cell Signaling Technology Inc, anti-MCL1 (#sc-819), anti-NOXA (#56169), and anti-HSP90 (#sc-13119) were from Santa Cruz biotechnology. The proteins were visualized using the ECL system (Amersham). The western blots shown are representative of at least 3 independent experiments.

[4] = system: metastatic OMM1 xenografts; assay: Subcutaneous tumor xenograft; assay type: in vivo, athymic nude mice
Method: (§2) FIG. 2. Effect of ABT-263 on tumor growth in vivo effects. (A) Primary Mel270 and (B) metastatic OMM1 uveal melanoma cells were subcutaneously engrafted into athymic nude mice. Once the tumours reached 100 mm3, mice were treated daily with ABT-263. The arrow indicates the start of the treatment. The growth tumor curves were determined by measuring the tumor volume using the equation V=(L Å˜W2)/2. […] (C-D) Sub-cutaneous tumor weight from control (Ct) and ABT-263-treated mice is shown. Animal experiments were performed in accordance with French law and approved by a local institutional ethical committee. The animals were maintained in a temperature-controlled facility (22° C.) on a 12-h light/dark cycle and provided free access to food (standard laboratory chow diet from UAR, Epinay-S/Orge, France). Human Mel270 uvealmelanoma cells were subcutaneously inoculated into 8-week-old female, immune-deficient, athymic, nude FOXN1nu mice (Harlan Laboratory). When the tumors became palpable (0.1-0.2 cm3), the mice received an intraperitoneal injection of ABT-263 (50 mg/kg), dissolved in 10% DMSO 6 times per week. Control mice were injected with DMSO alone. The growth tumor curves were determined after measuring the tumor volume using the equation V=(L×W2)/2. At the end of the experiment, the mice were euthanized by cervical dislocation.

[5] = system: Mel270 xenografts; assay: Subcutaneous tumor xenograft; assay type: in vivo, athymic nude mice; conditions: established Mel270 xenografts; 50 mg/kg intraperitoneal
Method: as §2

[6] = system: NOXA in primary cells; assay: Protein immunoblot of BCL-2 family members; assay type: cell-based, human; conditions: 24 h of treatment
Method: as §1, with “(Amersham).” for “(Amersham). The western blots shown are representative of at least 3 independent experiments.”

[7] = system: BCL-2 family members in metastatic OMM1 cells; assay: Protein immunoblot of BCL-2 family members; assay type: cell-based, human
Method: as §1, with “(Amersham).” for “(Amersham). The western blots shown are representative of at least 3 independent experiments.”

[8] = system: OMM1 cells; assay: Cell proliferation assay; assay type: cell-based, human; conditions: OMM1 metastatic melanoma cells
Method: (§3) Human uveal melanoma cell lines and short-term cultures derived from different patients with metastatic malignant melanoma cells were grown in DMEM supplemented with 7% FBS at 37° C. in a humidified atmosphere containing 5% CO2. Lipofectamine™ RNAiMAX and opti-MEM medium were purchased from Invitrogen (San Diego, CA, USA). ABT-263 was obtained from Euromedex and qVD from Clinisciences.

[9] = system: OMM2,5 metastatic melanoma cells; assay: Cell proliferation assay; assay type: cell-based, human
Method: as §3

[10] = system: primary melanoma cells; assay: Cell proliferation assay; assay type: cell-based, human; conditions: data not shown
Method: as §3

[11] = OMM1-xenografted mice, after end of treatment

With `CC1(C)CCC(c2ccc(Cl)cc2)=C(CN2CCN(c3ccc(C(=O)NS(=O)(=O)c4ccc(N[C@H](CCN5CCOCC5)CSc5ccccc5)c(S(=O)(=O)C(F)(F)F)c4)cc3)CC2)C1` [ABT-263, 4-[4-[[2-(4-chlorophenyl)-5,5-dimethyl-1-cyclohexen-1-yl]methyl]-1-piperazinyl]-N-[[4-[[(1R)-3-(4-morpholinyl)-1-[(phenylthio)methyl]propyl]amino]-3-[(trifluoromethyl)sulfonyl]phenyl]sulfonyl]-benzamide] the “serum alanine transaminase (ALT) versus vehicle” value [1, 11] was “no significant differences”, the “serum aspartate transaminase (AST) versus vehicle” value [1, 11] was “no significant differences” and the hepatotoxicity ([1]; in vivo conditions) was “no hepatotoxicity”. The “body weight versus vehicle” value ([1]; xenografted mice, data not shown) was “no significant differences”, the “long-term growth inhibitory activity (colony formation)” value [2] was “more sensitive” and the “ATF4 and CHOP level” value [3] was “enhanced”. The “excised tumor weight versus control group” value ([4]; end of experiment) was “weighed significantly less”, the tumor growth ([4]; metastatic OMM1 xenografts, in some mice total tumor disappearance) was “marked tumor regression” and the tumor growth [5] was “partially effective”. For the same compound, the “change in BCL-2 family proteins” value [6] was “increase in pro-apoptotic NOXA level”, the BCL2 level ([7]; cell line not given) was “no change” and the “expression of BCL-xL, MCL1, PUMA, BAX” value ([7]; metastatic OMM1 cells only) was “reduced expression”. The proliferation [8] was “strongly reduced proliferation”, the proliferation [9] was “strongly reduced proliferation” and the “proliferation, response of primary melanoma cells” value [10] was “highly resistant”.
